Experimental data taken from patent publication US20240174671A1, “New 2,3-Dihydro-1H-pyrrolo[3,2-b]pyridine Derivatives as Sigma Ligands” (ACONDICIONAMIENTO TARRASENSE, priority 2021, published 2024).
Like-named read-outs stand apart in the source and are kept apart here.

Assays:
human σ2/TMEM97 receptor = molecular target: T1, human σ2/TMEM97 receptor (Homo sapiens, UniProt Q5BJF2); assay: Binding assay to human σ2/TMEM97 receptor ([3H]-DTG); settings: transfected HEK-293 membranes, 10 nM [3H]-DTG, 25° C., 120 minutes; read-out: Binding σ-[…] (binding to σ2-receptor expressed as Ki)
T1 construct: expressed in transfected cells; host or cells: HEK-293
T1 sequence (Q5BJF2 whole entry): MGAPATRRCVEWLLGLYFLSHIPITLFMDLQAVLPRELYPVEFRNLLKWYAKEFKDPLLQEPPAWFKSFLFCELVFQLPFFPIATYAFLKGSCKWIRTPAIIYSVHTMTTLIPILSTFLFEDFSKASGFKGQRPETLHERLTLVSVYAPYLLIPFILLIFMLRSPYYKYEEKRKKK
Protocol: Binding Assay to Human σ2/TMEM97 Receptor.
Transfected HEK-293 membranes (15 μg) were incubated with 10 nM [^3H]-1,3-Di-o-tolylguanidine (DTG) in assay buffer containing Tris-HCl 50 mM at pH 8.0. NSB (non-specific binding) was measured by adding 10 μM haloperidol. The binding of the test compound was measured at either one concentration (% inhibition at 1 or 10 µM) or five different concentrations to determine affinity values (Ki). Plates were incubated at 25° C. for 120 minutes. After the incubation period, the reaction mix was transferred to MultiScreen HTS, FC plates (Millipore), filtered and washed 3 times with ice-cold 10 mM Tris-HCL (pH 8.0). Filters were dried and counted at approximately 40% efficiency in a MicroBeta scintillation counter (Perkin-Elmer) using EcoScint liquid scintillation cocktail.

human σ1 receptor = molecular target: T2, human σ1 receptor (Homo sapiens, UniProt Q99720); assay: Human σ1 receptor radioligand assay ([3H](+)-pentazocine); assay type: binding
T2 construct: expressed in transfected cells; host or cells: HEK-293
T2 sequence (Q99720 whole entry): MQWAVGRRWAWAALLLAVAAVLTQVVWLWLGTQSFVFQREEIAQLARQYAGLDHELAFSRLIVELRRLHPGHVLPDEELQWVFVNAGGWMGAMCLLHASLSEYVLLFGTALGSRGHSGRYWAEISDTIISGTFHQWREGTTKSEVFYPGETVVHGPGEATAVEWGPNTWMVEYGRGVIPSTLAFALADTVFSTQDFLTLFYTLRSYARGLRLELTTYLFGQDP
Protocol: Human σ1 Receptor Radioligand Assay
NBS (non-specific binding) was measured by adding 10 μM haloperidol. The binding of the test compound was measured at either one concentration (% inhibition at 1 or 10 µM) or five different concentrations to determine affinity values (Ki). Plates were incubated at 37° C. for 120 minutes. After the incubation period, the reaction mix was then transferred to MultiScreen HTS, FC plates (Millipore), filtered and plates were washed 3 times with ice-cold 10 mM Tris-HCL (pH7.4). Filters were dried and counted at approximately 40% efficiency in a MicroBeta scintillation counter (Perkin-Elmer) using EcoScint liquid scintillation cocktail.

[1] = transfected HEK-293 membranes, 5 nM [3H](+)-pentazocine, 37° C., 120 minutes, read-out: Binding σ-[…] (binding to σ1-receptor expressed as Ki)

SMILES	Ki (human σ2/TMEM97 receptor)	Ki (human σ1 receptor; [1])	Ki (human σ1 receptor)
CC1(C)CN(C(=O)NC2CN(Cc3ccccc3)C2)c2cccnc21 [Example 88, N-(1-benzylazetidin-3-yl)-3,3-dimethyl-2,3-dihydro-1H-pyrrolo[3,2-b]pyridine-1-carboxamide]	> 1000 nM	100 to 500 nM	–
CN(CCc1ccccc1)[C@H]1CCN(C(=O)N2CCc3ncccc32)C1 [Example 62, (S)-(2,3-dihydro-1H-pyrrolo[3,2-b]pyridin-1-yl)(3-(methyl(phenethyl)amino)pyrrolidin-1-yl)methanone]	500 to 1000 nM	> 1000 nM	–
CN(Cc1ccccc1)[C@H]1CC[C@H](C(=O)N2CC(C)(C)c3nc(C(F)(F)F)ccc32)CC1 [Example 186, ((1r,4r)-4-(benzyl(methyl)amino)cyclohexyl)(3,3-dimethyl-5-(trifluoromethyl)-2,3-dihydro-1H-pyrrolo[3,2-b]pyridin-1-yl)methanone]	> 1000 nM	< 100 nM	–
Cc1ccc2c(n1)C(C)(C)CN2C(=O)CC1CCN(Cc2ccccc2)CC1 [Example 130, 2-(1-benzylpiperidin-4-yl)-1-(3,3,5-trimethyl-2,3-dihydro-1H-pyrrolo[3,2-b]pyridin-1-yl)ethanone]	100 to 500 nM	< 100 nM	–
Cc1ccc2c(n1)C(C)(C)CN2C(=O)[C@H]1CC[C@@H](N(C)Cc2ccccc2)CC1 [Example 126, ((1s,4s)-4-(benzyl(methyl)amino)cyclohexyl)(3,3,5-trimethyl-2,3-dihydro-1H-pyrrolo[3,2-b]pyridin-1-yl)methanone]	< 100 nM	< 100 nM	–
Cc1ccc2c(n1)C(C)(C)CN2C(=O)N1CCC2(CCN(Cc3ccncc3)CC2)C1 [Example 99, (8-(pyridin-4-ylmethyl)-2,8-diazaspiro[4.5]decan-2-yl)(3,3,5-trimethyl-2,3-dihydro-1H-pyrrolo[3,2-b]pyridin-1-yl)methanone]	< 100 nM	> 1000 nM	–
Cc1ccc2c(n1)C(C)(C)CN2C(=O)[C@H]1C[C@H](N(C)Cc2ccccc2)C1 [Example 137, ((1r,3r)-3-(Benzyl(methyl)amino)cyclobutyl)(3,3,5-trimethyl-2,3-dihydro-1H-pyrrolo[3,2-b]pyridin-1-yl)methanone]	100 to 500 nM	< 100 nM	–
CC(C)(C)CCN1CCC(CNC(=O)N2CC(C)(C)c3ncccc32)CC1 [Example 109, N-((1-(3,3-dimethylbutyl)piperidin-4-yl)methyl)-3,3-dimethyl-2,3-dihydro-1H-pyrrolo[3,2-b]pyridine-1-carboxamide]	< 100 nM	100 to 500 nM	–
CN(Cc1ccc(C#N)c(F)c1)C1CCN(C(=O)N2CC(C)(C)c3ncccc32)CC1 [Example 87, 4-(((1-(3,3-dimethyl-2,3-dihydro-1H-pyrrolo[3,2-b]pyridine-1-carbonyl)piperidin-4-yl)(methyl)amino)methyl)-2-fluorobenzonitrile]	< 100 nM	500 to 1000 nM	–
CC1(C)CN(C(=O)C2CN(Cc3ccccc3)C2)c2cccnc21 [Example 132, (1-benzylazetidin-3-yl)(3,3-dimethyl-2,3-dihydro-1H-pyrrolo[3,2-b]pyridin-1-yl)methanone]	100 to 500 nM	< 100 nM	–
Cc1nc2c(cc1F)N(C(=O)NC[C@@H](c1ccccc1)N(C)C)CC2(C)C [Example 16, (R)—N-(2-(dimethylamino)-2-phenylethyl)-6-fluoro-3,3,5-trimethyl-2,3-dihydro-1H-pyrrolo[3,2-b]pyridine-1-carboxamide]	> 1000 nM	< 100 nM	–
CN(Cc1ccc(F)cc1)C1CCN(C(=O)N2CC(C)(C)c3ncccc32)CC1 [Example 86, (3,3-dimethyl-2,3-dihydro-1H-pyrrolo[3,2-b]pyridin-1-yl)(4-((4-fluorobenzyl)(methyl)amino)piperidin-1-yl)methanone]	< 100 nM	500 to 1000 nM	–
Cc1ccc2c(n1)CCN2C(=O)N1CCC(N(C)Cc2ccccc2)CC1 [Example 49]	100 to 500 nM	100 to 500 nM	–
Cc1ccc2c(n1)C(C)(C)CN2C(=O)N1CCC(N(C)CCC(C)C)CC1 [Example 67, (4-(isopentyl(methyl)amino)piperidin-1-yl)(3,3,5-trimethyl-2,3-dihydro-1H-pyrrolo[3,2-b]pyridin-1-yl)methanone]	< 100 nM	< 100 nM	–
Cc1ccc2c(n1)C(C)(C)CN2C(=O)NC1CCN(CCc2ccccc2)CC1 [Example 27, 3,3,5-trimethyl-N-(1-phenethylpiperidin-4-yl)-2,3-dihydro-1H-pyrrolo[3,2-b]pyridine-1-carboxamide]	< 100 nM	–	100 to 500 nM
CN(Cc1ccccc1)[C@H]1CC[C@@H](NC(=O)N2CC(C)(C)c3ncccc32)CC1 [Example 72, N-((1s,4s)-4-(benzyl(methyl)amino)cyclohexyl)-3,3-dimethyl-2,3-dihydro-1H-pyrrolo[3,2-b]pyridine-1-carboxamide]	< 100 nM	< 100 nM	–
CC1(C)CN(C(=O)NC2CCN(Cc3ccccc3)CC2)c2cc(F)cnc21 [Example 31, N-(1-benzylpiperidin-4-yl)-6-fluoro-3,3-dimethyl-2,3-dihydro-1H-pyrrolo[3,2-b]pyridine-1-carboxamide]	500 to 1000 nM	< 100 nM	–
Cc1ccc2c(n1)C(C)(C)CN2C(=O)[C@H]1CC[C@H](N(C)Cc2cc(F)ccc2F)CC1 [Example 173, ((1r,4r)-4-((2,5-difluorobenzyl)(methyl)amino)cyclohexyl)(3,3,5-trimethyl-2,3-dihydro-1H-pyrrolo[3,2-b]pyridin-1-yl)methanone]	< 100 nM	< 100 nM	–
Cc1ccc2c(n1)C(C)(C)CN2C(=O)[C@H]1CC[C@H](N(C)Cc2ccc(F)cc2)CC1 [Example 182, ((1r,4r)-4-((4-fluorobenzyl)(methyl)amino)cyclohexyl)(3,3,5-trimethyl-2,3-dihydro-1H-pyrrolo[3,2-b]pyridin-1-yl)methanone]	< 100 nM	< 100 nM	–
Cc1ccc2c(n1)C(C)(C)CN2C(=O)[C@H]1C[C@@H](NCc2ccccc2)C1 [Example 136, ((1s,3s)-3-(benzylamino)cyclobutyl)(3,3,5-trimethyl-2,3-dihydro-1H-pyrrolo[3,2-b]pyridin-1-yl)methanone]	100 to 500 nM	100 to 500 nM	–
CN[C@H](CNC(=O)N1CC(C)(C)c2nc(C)ccc21)c1ccccc1 [Example 111, (S)-3,3,5-trimethyl-N-(2-(methylamino)-2-phenylethyl)-2,3-dihydro-1H-pyrrolo[3,2-b]pyridine-1-carboxamide]	> 1000 nM	100 to 500 nM	–
Cc1ccc2c(n1)C(C)(C)CN2C(=O)[C@H]1CC[C@H](N(C)Cc2ccc(C(F)(F)F)nc2)CC1 [Example 184, ((1r,4r)-4-(methyl((6-(trifluoromethyl)pyridin-3-yl)methyl)amino)cyclohexyl)(3,3,5-trimethyl-2,3-dihydro-1H-pyrrolo[3,2-b]pyridin-1-yl)methanone]	< 100 nM	< 100 nM	–
Cc1ccc2c(n1)C(C)(C)CN2C(=O)N1CC[C@H](N(C)Cc2ccccc2)C1 [Example 39, (S)-(3-(benzyl(methyl)amino)pyrrolidin-1-yl)(3,3,5-trimethyl-2,3-dihydro-1H-pyrrolo[3,2-b]pyridin-1-yl)methanone]	> 1000 nM	100 to 500 nM	–
Cc1ccc2c(n1)C(C)(C)CN2C(=O)N1CCC2(CCN(Cc3ccc(C#N)c(F)c3)CC2)CC1 [Example 163, 2-fluoro-4-((9-(3,3,5-trimethyl-2,3-dihydro-1H-pyrrolo[3,2-b]pyridine-1-carbonyl)-3,9-diazaspiro[5.5]undecan-3-yl)methyl)benzonitrile]	100 to 500 nM	100 to 500 nM	–
CC(C)CCN1CCC(CNC(=O)N2CC(C)(C)c3ncccc32)CC1 [Example 106, N-((1-isopentylpiperidin-4-yl)methyl)-3,3-dimethyl-2,3-dihydro-1H-pyrrolo[3,2-b]pyridine-1-carboxamide]	100 to 500 nM	500 to 1000 nM	–
Cc1ccc2c(n1)C(C)(C)CN2C(=O)N1CCC(CN(C)Cc2ccccc2)CC1 [Example 66, (4-((benzyl(methyl)amino)methyl)piperidin-1-yl)(3,3,5-trimethyl-2,3-dihydro-1H-pyrrolo[3,2-b]pyridin-1-yl)methanone]	100 to 500 nM	100 to 500 nM	–
CC1(C)CN(C(=O)N2CCC3(CCN(Cc4ccc(C#N)c(F)c4)CC3)CC2)c2cccnc21 [Example 146, 4-((9-(3,3-dimethyl-2,3-dihydro-1H-pyrrolo[3,2-b]pyridine-1-carbonyl)-3,9-diazaspiro[5.5]undecan-3-yl)methyl)-2-fluorobenzonitrile]	100 to 500 nM	< 100 nM	–
CC1(C)CN(C(=O)NC2CCN(Cc3ccccc3)CC2)c2ccc(C#N)nc21 [Example 30, N-(1-benzylpiperidin-4-yl)-5-cyano-3,3-dimethyl-2,3-dihydro-1H-pyrrolo[3,2-b]pyridine-1-carboxamide]	–	< 100 nM	–
